The values below come from US8591908B2, “Immunogen for preparation of therapeutic vaccines or drugs for treatment of hepatitis B and the producing method and use thereof” (Institute of Immunology, PLA, priority 2002, dated 2013).

Ends that are not written are not given here. * marks the point of attachment. Palmitoyl = CCCCCCCCCCCCCCCC(=O)*; Lauroyl = CCCCCCCCCCCC(=O)*

Assay [1] relates to PBMCs from hepatitis B patient. As to the kind of experiment: Lymphocyte activation (Th1/Th2) of PBMCs from hepatitis B patient. In kind it is cell-based, human. As to conditions: IL-4, IL-10, IFN-γ in culture supernatants, acute and chronic hepatitis. The text has this: Acute and chronic hepatitis blank control groups, acute hepatitis+/test drug group and chronic hepatitis+/test drug group were included to test the Th1/Th2 activation by Endogen kit or EELISPOT method.

In assay [2] the test system is 2215, E6 and T2 target cells. As to the kind of experiment: FIG. 4: induced CTL cytotoxicity, 51Cr release test. Type of assay: cell-based, human. As to conditions: 10 ng test drug; E/T 12.5, 25, 50, 100. As for the experimental part: (§1) FIG. 4 indicated the effect of inducing cytotoxicity. […] Three days after the last stimulation, antigen-specific effector CTL cells were obtained, and their cytotoxic activities were measured by the standard ^51Cr release test and compared. […] Twenty-four hours after the last stimulation to HLA-A2+ human PBMC, the effects of the test drug to induce the proliferating INF-γ secreting CTL cells in peripheral blood lymphocytes were measured in the ELISPOT method and compared.

For another assay, the system named is HLA-A2+ human PBMC. As to the kind of experiment: FIG. 4: IFN-γ secreting CTL cells, ELISPOT. Type of assay: cell-based. Particulars: 24 h after last stimulation. As for the experimental part: as §1
Assay [3] deals with PBMCs from acute hepatitis B patient in convalescent phase. As to the kind of experiment: Proliferation of lymphocytes in PBMC of acute hepatitis B patient, 3H-TdR. Type of assay: cell-based, human. As to conditions: 0.1 μg, 1 μg and 10 μg/ml with IL-2. Here is the method: Anticoagulant peripheral blood was collected aseptically from acute hepatitis B patient in convalescent phase, PBMCs were isolated by conventional Ficoll-Hypaque density gradient centrifugation and were cultured in RPMI1640 cultural media (containing 10% calf serum, 100 u/ml penicillin-streptomycin, L-glutamine) in vitro on 24-well cell culture plate at a concentration of 10^6/ml. Blank control group, test group, and Pre-S (2) control group were included. IL-2 (30 IU/ml) and test drug (0.1 μg/ml, 1 μg/ml, 10 μg/ml) were separately added into the wells. After the cells were cultured for 6 days, IL-2 and the test drug were added at the same doses to stimulate the cells again. Then 3H-TdR (1 uCi/ml) was added and further cultured for 18 hours. The cells were collected and tested by liquid scintillation.

Another assay relates to Balb/c mice. In words: ELISPOT test of induced cytotoxicity in immunized mice. In kind it is in vivo. Particulars: IFN-γ ELISPOT of PBMC. The source says: Balb/c mice of 2-3 Months old (both male and female) were divided into 8 groups, and were immunized with the present compound at both postpede palmas once a week for three times at different doses: 0.001 nmol, 0.01 nmol, 0.1 nmol, 0.5 nmol, 1 nmol, 10 nmol, 20 nmol, and 40 nmol respectively. Bloods were taken postorbitally from mice under sterile conditions on the 6th, 12th, 18th and 24th day after the end of immunization respectively and were anticoagulatant-treated. PBMCs were isolated by Ficoll-Hypaque method, and were cultured in RPMI1640 culture media (containing 10% calf serum, and 100μ/ml penicillin-streptomycin) (10^6/ml, 96-well culture plate) in vitro for one day. After they returned to the original growth state, they were used as test cells. ELISPOT 96-well cell culture plate was pre-coated with IFN-γ coating antibody overnight, each well was treated in triplicate. The wells were blocked with RPMI1640 containing 5% calf serum at room temperature for 1 hour. After drying in air, test cells were added (5×10^4 cells/100 μl/well, containing RPMI1640 media, 10% calf serum, 100μ/ml myciline, and 1 μg/ml peptide), wherein the PBMC of mice immunized with melan A27-35 peptide were set as negative control. […] Then the plate was washed again and dried in air, the substrate was added for visualization and the number of spots was counted.

On to “CH3(CH2)10COKSSPADREGGGSLNFLGGTTVSSSDPRVRGLYFPA (Lauroyl-KSSPADREGGGSLNFLGGTTVSSSDPRVRGLYFPA) [SEQ ID NO:50]”, for which the “conversion of T-lymphocytes into Th1/Th2 type” value in assay [1] was “induce the conversion of T-lymphocytes into both Th1 and Th2 types, with the conversion into Th1 type the most obvious”.
On to “CH3(CH2)7CH═CH(CH2)—CO, CH3CH2CH═CHCH2CH═CH(CH2)7CO7KSSQYIKANSKFIGITEGGGDPRVRGLYFPA (not fully specified (N-terminus); printed as CH3(CH2)7CH═CH(CH2)—CO, CH3CH2CH═CHCH2CH═CH(CH2)7CO7KSSQYIKANSKFIGITEGGGDPRVRGLYFPA) [SEQ ID NO:3]”, for which the “CTL effect, lysis of target cells” value in assay [2] was “induce the CTL effect in human PBMC, and specifically lyzed and destroyed target cells”. The “proliferation of IFN-γ secreting cells” value with HLA-A2+ human PBMC is on record as “induce the proliferation of IFN-γ secreting cells in human PBMC in a notable dose-effect dependence relation”.
Turning to “CH3(CH2)14COKSSQYIKANSKFIGITEAAALLCLIFLLVGGGDPRVRGLYFPA (Palmitoyl-KSSQYIKANSKFIGITEAAALLCLIFLLVGGGDPRVRGLYFPA) [SEQ ID NO:51]”, the “proliferation of PBMCs” value in assay [3] is listed as “stimulated the proliferation of PBMCs from acute hepatitis B patient in convalescent phase in a manner of dose dependence”.
“CH3(CH2)14COKSSPADREAAAFLPSDFFPSVGGGDPRVRGLYFPA (Palmitoyl-KSSPADREAAAFLPSDFFPSVGGGDPRVRGLYFPA) [SEQ ID NO:56]” had a minimum effective dose with Balb/c mice of 0.01 nmol.
